± gives the standard deviation of the averaged measurements.
Columns and labels:
Test in all cases: level (log10 ratio to DMSO vehicle control); higher = higher biomarker level / cell amount than vehicle control
[1] = compound: C=CC(=O)OCC(F)(F)C(F)(F)C(F)(F)COC(=O)C=C [1H,1H,5H,5H-Perfluoro-1,5-pentanediol diacrylate]; settings: 6700 nM; in DMSO
Experimental: (§1)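 BioMAP Diversity Plus panel of 12 human primary cell co-culture systems (3C, 4H, LPS, SAg, BT, BF4T, BE3C, CASM3C, HDF3CGF, KF3CT, MyoF, Mphg). Compounds were added 1 h before stimulation and left for 24 h (MyoF 48 h; BT 72 h for soluble read-outs or 6 d for IgG). Biomarkers were read by ELISA, cytotoxicity by SRB, PBMC viability and proliferation by Alamar Blue. Each well value was divided by the mean of 8 DMSO control wells on the same plate and log10 transformed; duplicate blinded samples were tested at 4 concentrations.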

[2] = compound: C=C(C)C(=O)OCCC(F)(F)C(F)(F)C(F)(F)C(F)(F)C(F)(F)C(F)(F)F [6:2 Fluorotelomer methacrylate]; settings: in DMSO
Experimental: as §1

[3] = compound: NS(=O)(=O)C(F)(F)C(F)(F)C(F)(F)C(F)(F)C(F)(F)C(F)(F)F [Perfluorohexanesulfonamide]; settings: in DMSO
Experimental: as §1

[4] = compound: NC(=O)C(F)(F)C(F)(F)C(F)(F)C(F)(F)C(N)=O [Octafluoroadipamide]; settings: in DMSO
Experimental: as §1

[5] = compound: FC(F)(F)C(F)(F)C(F)(F)C(F)(F)C(F)(F)C(F)(F)C(F)(F)I [1-Iodopentadecafluoroheptane]; settings: in DMSO
Experimental: as §1

[6] = compound: FC(F)(F)C(F)(F)C(F)(F)CC1CO1 [1H,1H-Heptafluorobutyl epoxide]; settings: in DMSO
Experimental: as §1

Row | Test System | level (log10) [1] | level (log10) ([2]; 6700 nM) | level (log10) ([2]; 20000 nM) | level (log10) ([2]; 60000 nM) | level (log10) ([3]; 6700 nM) | level (log10) ([3]; 20000 nM) | level (log10) ([3]; 60000 nM) | level (log10) ([4]; 6700 nM) | level (log10) ([4]; 20000 nM) | level (log10) ([4]; 60000 nM) | level (log10) ([5]; 6700 nM) | level (log10) ([5]; 20000 nM) | level (log10) ([6]; 6700 nM) | level (log10) ([6]; 20000 nM) | level (log10) ([6]; 60000 nM)
1 | BF4T:SRB | -0.005 ± 0.0042 | 0.002 ± 0.0071 | -0.003 ± 0.0071 | -0.0035 ± 0.012 | -0.005 ± 0.0042 | -0.012 ± 0.0042 | -0.0345 ± 0.005 | -0.006 ± 0.0071 | -0.002 ± 0.0028 | 0.001 ± 0.0071 | -0.0085 ± 0.0092 | -0.008 ± 0.0014 | -0.004 ± 0.0057 | 0.0005 ± 0.005 | 0.0025 ± 0.005
2 | BF4T:tPA | -0.071 ± 0.014 | -0.0185 ± 0.016 | -0.036 ± 0.038 | -0.014 ± 0.047 | 0.004 ± 0.0028 | -0.012 ± 0.0085 | -0.075 ± 0.016 | -0.0475 ± 0.035 | -0.047 ± 0.045 | -0.023 ± 0.081 | 0.022 ± 0.025 | -0.0085 ± 0.016 | -0.012 ± 0.014 | -0.0235 ± 0.018 | -0.0065 ± 0.011
3 | BF4T:uPA | -0.019 ± 0.013 | -0.006 ± 0.0057 | 0.0005 ± 0.026 | 0.006 ± 0.011 | -0.003 ± 0.0042 | 0.0005 ± 0.0035 | -0.01 ± 0.011 | -0.0405 ± 0.0092 | -0.0325 ± 0.021 | -0.0165 ± 0.026 | -0.0365 ± 0.016 | -0.026 ± 0.016 | -0.0065 ± 0.013 | 0.0025 ± 0.022 | -0.028 ± 0.034
4 | BT:B cell Proliferation | -0.24 ± 0.052 | -0.0325 ± 0.043 | -0.0255 ± 0.021 | -0.008 | 0.0025 ± 0.063 | 0.034 ± 0.047 | 0.086 ± 0.0042 | -0.008 ± 0.025 | 0.018 ± 0.013 | 0.016 ± 0.025 | -0.0045 ± 0.005 | 0.019 ± 0.0071 | -0.021 ± 0.038 | 0.008 ± 0.033 | -0.008 ± 0.034
5 | BT:PBMC Cytotoxicity | -0.201 ± 0.0092 | 0.0045 ± 0.021 | 0.018 ± 0.03 | 0.0285 ± 0.032 | 0.0405 ± 0.011 | 0.047 ± 0.027 | 0.0775 ± 0.011 | 0.0125 ± 0.0021 | 0.018 ± 0.011 | 0.005 ± 0.051 | 0.014 ± 0.0057 | 0.0075 ± 0.049 | 0.0175 ± 0.026 | -0.0025 ± 0.022 | 0.017 ± 0.013
6 | BT:Secreted IgG | -0.565 ± 0.17 | 0.0165 ± 0.00071 | -0.0065 ± 0.005 | -0.0095 ± 0.023 | -0.024 ± 0.016 | -0.0005 ± 0.046 | -0.133 ± 0.037 | 0.0345 ± 0.018 | 0.037 ± 0.0028 | 0.0215 ± 0.0078 | -0.006 ± 0.05 | -0.01 ± 0.044 | 0.017 ± 0.038 | -0.0175 ± 0.043 | 0.008 ± 0.033
7 | BT:sIL-2 | -0.651 ± 0.08 | 0.0005 ± 0.012 | -0.0195 ± 0.053 | -0.036 ± 0.025 | -0.018 ± 0.11 | -0.0415 ± 0.015 | 0.0705 ± 0.00071 | 0.137 ± 0.073 | 0.116 ± 0.061 | 0.126 ± 0.027 | -0.113 ± 0.07 | -0.017 ± 0.081 | -0.0245 ± 0.0092 | -0.055 ± 0.15 | 0.022 ± 0.18
8 | BT:sIL-6 | -0.692 ± 0.031 | 0.017 ± 0.014 | 0.059 ± 0.017 | -0.004 ± 0.089 | 0.013 ± 0.09 | -0.0025 ± 0.061 | -0.0455 ± 0.037 | 0.0215 ± 0.037 | 0.024 ± 0.0057 | 0.0065 ± 0.016 | -0.0825 ± 0.0078 | 0.024 ± 0.044 | 0.002 ± 0.0014 | -0.023 ± 0.042 | -0.0725 ± 0.071
9 | BT:sIL-17A | -1.14 ± 0.22 | -0.058 ± 0.16 | 0.028 ± 0.099 | -0.078 ± 0.04 | -0.155 ± 0.069 | -0.072 ± 0.069 | -0.026 ± 0.051 | -0.107 ± 0.018 | -0.0535 ± 0.098 | 0.0055 ± 0.025 | -0.213 ± 0.3 | -0.112 ± 0.31 | -0.0185 ± 0.022 | 0.0025 ± 0.033 | -0.033 ± 0.067
10 | BT:sIL-17F | -1 ± 0.04 | -0.0095 ± 0.032 | -0.023 ± 0.02 | -0.046 ± 0.014 | -0.0125 ± 0.11 | 0.054 ± 0.041 | -0.13 ± 0.027 | 0.0465 ± 0.057 | 0.073 ± 0.05 | 0.06 ± 0.082 | -0.0435 ± 0.049 | -0.0545 ± 0.16 | 0.0235 ± 0.015 | -0.0505 ± 0.063 | 0.0025 ± 0.1
11 | LPS:M-CSF | -0.0655 ± 0.026 | 0.0215 ± 0.025 | 0.0305 ± 0.0064 | 0.0275 ± 0.028 | -0.022 ± 0.016 | -0.0155 ± 0.0021 | -0.081 ± 0.0057 | -0.029 ± 0.14 | 0.0205 ± 0.052 | 0.023 ± 0.047 | 0.023 ± 0.047 | 0.0155 ± 0.086 | -0.019 ± 0.02 | 0.0005 ± 0.036 | 0.0255 ± 0.053
12 | LPS:sPGE2 | -0.105 ± 0.028 | 0.0125 ± 0.0078 | 0.027 ± 0.0099 | 0.0025 ± 0.046 | 0.088 ± 0.014 | 0.13 ± 0.032 | 0.207 ± 0.046 | 0.083 ± 0.037 | -0.04 ± 0.018 | -0.0165 ± 0.026 | -0.062 ± 0.013 | -0.103 ± 0.027 | 0.007 ± 0.03 | 0.005 ± 0.05 | 0.0105 ± 0.00071
13 | LPS:sTNF-alpha | -0.008 ± 0.0057 | 0.031 ± 0.028 | 0.0415 ± 0.021 | 0.0405 ± 0.022 | -0.0515 ± 0.022 | -0.02 ± 0.041 | -0.0325 ± 0.079 | 0.047 ± 0.018 | 0.0355 ± 0.018 | 0.037 ± 0.0042 | 0.0115 ± 0.018 | 0.0025 ± 0.0092 | -0.003 ± 0.014 | -0.0055 ± 0.012 | -0.014 ± 0.0085
14 | SAg:CCL2/MCP-1 | -0.13 ± 0.04 | -0.001 ± 0.058 | 0 ± 0.025 | 0.0135 ± 0.005 | -0.0065 ± 0.00071 | -0.0185 ± 0.0035 | -0.085 ± 0.027 | -0.001 ± 0.0071 | 0.002 ± 0.0014 | 0.0105 ± 0.016 | 0.02 ± 0.05 | 0.0105 ± 0.033 | 0.0055 ± 0.0035 | -0.009 ± 0.0071 | -0.025 ± 0.017
15 | SAg:CD38 | -0.0655 ± 0.046 | -0.0075 ± 0.011 | 0.015 ± 0.038 | 0.0005 ± 0.029 | 0.0495 ± 0.056 | 0.0225 ± 0.061 | -0.141 ± 0.12 | 0.0005 ± 0.00071 | 0.0005 ± 0.018 | 0.0065 ± 0.0021 | -0.0085 ± 0.029 | -0.005 ± 0.024 | 0.0025 ± 0.012 | -0.025 ± 0.0085 | -0.0125 ± 0.03
16 | SAg:CD40 | -0.14 ± 0.033 | -0.024 ± 0.04 | -0.0255 ± 0.028 | -0.0315 ± 0.012 | -0.025 ± 0.017 | -0.064 ± 0.0057 | -0.172 ± 0.0064 | -0.002 ± 0.0028 | -0.001 ± 0.0014 | -0.001 ± 0.024 | -0.0065 ± 0.013 | -0.007 ± 0.0085 | -0.01 ± 0.034 | -0.0015 ± 0.0064 | -0.0235 ± 0.013
17 | SAg:CD62E/E-Selectin | -0.469 ± 0.1 | -0.011 ± 0.038 | 0.0105 ± 0.015 | 0.0105 ± 0.0064 | -0.0155 ± 0.012 | -0.05 ± 0.035 | -0.178 ± 0.034 | 0.0015 ± 0.0078 | 0.0065 ± 0.022 | 0.0185 ± 0.028 | -0.0415 ± 0.056 | -0.008 ± 0.044 | -0.0065 ± 0.043 | -0.013 ± 0.0057 | -0.015 ± 0.016
18 | SAg:CXCL8/IL-8 | -0.259 ± 0.13 | 0.0095 ± 0.005 | -0.0165 ± 0.0021 | 0.044 ± 0.011 | -0.0225 ± 0.021 | -0.088 ± 0.0099 | -0.237 ± 0.088 | -0.001 ± 0.04 | 0.0075 ± 0.015 | 0.02 ± 0.0014 | -0.034 ± 0.035 | 0.0055 ± 0.073 | -0.012 ± 0.05 | -0.011 ± 0.021 | 0.005 ± 0.027
19 | SAg:CXCL9/MIG | 0.0025 ± 0.0078 | 0.007 ± 0.023 | 0.0085 ± 0.011 | 0.012 ± 0.025 | -0.0135 ± 0.018 | -0.004 ± 0.0071 | 0.0105 ± 0.0064 | 0 | -0.0045 ± 0.0064 | -0.0005 ± 0.013 | 0.006 ± 0.0071 | 0.02 ± 0.0042 | -0.0155 ± 0.0078 | -0.0165 ± 0.015 | -0.0065 ± 0.018
20 | SAg:PBMC Cytotoxicity | -0.111 ± 0.0035 | -0.0305 ± 0.057 | 0.0085 ± 0.0021 | 0.015 ± 0.0099 | 0 ± 0.05 | 0.0415 ± 0.021 | 0.121 ± 0.023 | 0.004 ± 0.014 | -0.0095 ± 0.0021 | 0.01 ± 0.027 | -0.0165 ± 0.028 | 0.0265 ± 0.026 | -0.0095 ± 0.0092 | -0.005 ± 0.013 | 0.0345 ± 0.011
